Test results published in patent US20070219213A1, “Use of Adrenergic N-Phenylpiperazine Antagonists, Pahrmaceutical Compositions Containning Them, and Methods of Preparing Them” (priority 2004, published 2007).

Tests used:
[1] = system: alpha 1A adrenoceptor (human prostatic membranes); conditions: similar models; literature (Motiyama et al.); cited from earlier work
[2] = biological target: T1, alpha 1D adrenoceptor (rat aorta) (Rattus norvegicus, UniProt P23944); experiment: Vasoconstriction assay in rat aorta induced by norepinephrine; type: cell-based; conditions: pKB, rat aorta, α1D
T1 construct: from tissue; host or cells: rat aorta segments with endothelium
T1 sequence (P23944 1-561): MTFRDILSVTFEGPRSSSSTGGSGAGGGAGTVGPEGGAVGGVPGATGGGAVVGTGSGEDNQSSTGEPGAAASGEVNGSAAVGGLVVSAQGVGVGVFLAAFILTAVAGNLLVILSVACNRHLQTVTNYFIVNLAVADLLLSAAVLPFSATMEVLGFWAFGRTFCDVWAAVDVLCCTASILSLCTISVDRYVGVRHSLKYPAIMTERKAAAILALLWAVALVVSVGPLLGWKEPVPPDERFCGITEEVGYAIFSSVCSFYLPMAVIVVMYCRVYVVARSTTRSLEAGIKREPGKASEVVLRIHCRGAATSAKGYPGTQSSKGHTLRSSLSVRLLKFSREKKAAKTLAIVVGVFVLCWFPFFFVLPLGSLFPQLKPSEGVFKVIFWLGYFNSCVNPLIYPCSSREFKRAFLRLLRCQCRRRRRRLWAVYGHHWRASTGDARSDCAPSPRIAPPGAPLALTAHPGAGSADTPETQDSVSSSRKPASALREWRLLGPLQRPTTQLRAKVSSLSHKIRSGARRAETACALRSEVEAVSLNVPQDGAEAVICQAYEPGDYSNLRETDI
Method: Vasoconstriction Assay in Mouse Aorta Induced By Norepinephrine
Aorta segments with endothelium (3 mm), withdrawn from young male rats (250-300 g), were placed in containers containing physiologic solution (NaCl 122 mM, KCl 5 mM, NaHCO3 15 mM, glucose 11.5 mM, MgCl2 1.2 mM, CaCl2 1.25 mM and KH2PO4 1.2 mM), kept at 37° C. under aeration with a mixture of 95% of O2 and 5% of CO2, and submitted to a pre-charge of 5 mN for 60 minutes. During this period, eventual tension adjustments were performed until the stabilization in 0.5 g, always with renewal with physiologic solution. Then, vasoconstriction was induced by 60 mM KCl solution, in each ring, to verify the viability of the organ on the day of experiment. The preparation was submitted to the contraction with norepinephrine (5×10^−5 M) and, then the rings were washed to reach the basal line (0% of vasoconstriction). The procedure was repeated until the obtainment of a constant curve. Later, a curve, using increasing concentrations of norepinephrine (3×10^−8-5×10^−5 M), was performed for each ring, as a positive control. The segments were washed to reach the basal line (0% of vasoconstriction) and incubated with the test compounds, individually, for 30 minutes. A second norepinephrine curve was performed and obtained data compared to the first control curve. […] The aorta rings were used once for each compound.
Determination of the LASSBio 772 Antagonist Potency (pKB) on the Vasoconstriction of Rabbit or Rat Thoracic Aorta.

α1A = biological target: T2, α1A (Oryctolagus cuniculus, UniProt O02824); experiment: Binding study in rabbit liver; conditions: rabbit liver, α1A; read-out: IC50
T2 construct: from tissue
T2 sequence (O02824 1-466): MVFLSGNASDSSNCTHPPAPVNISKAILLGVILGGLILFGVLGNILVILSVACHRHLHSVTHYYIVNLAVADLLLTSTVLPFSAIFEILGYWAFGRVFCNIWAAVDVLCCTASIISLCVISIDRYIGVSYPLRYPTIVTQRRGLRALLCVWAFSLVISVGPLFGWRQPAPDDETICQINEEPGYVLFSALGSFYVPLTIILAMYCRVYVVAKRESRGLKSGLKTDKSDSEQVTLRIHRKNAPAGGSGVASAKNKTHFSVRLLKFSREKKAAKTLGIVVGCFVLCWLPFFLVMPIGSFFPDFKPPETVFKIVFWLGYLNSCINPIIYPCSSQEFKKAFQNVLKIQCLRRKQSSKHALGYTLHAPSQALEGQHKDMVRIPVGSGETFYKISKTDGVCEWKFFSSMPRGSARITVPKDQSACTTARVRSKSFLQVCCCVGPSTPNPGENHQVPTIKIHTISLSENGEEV

alpha 1B subtype = biological target: T3, alpha 1B subtype (Rattus norvegicus, UniProt P15823); experiment: [3H]prazosin binding assay in rat liver; conditions: rat liver, α1B; read-out: IC50
T3 construct: from tissue; host or cells: rat liver homogenate/membranes
T3 sequence (P15823 1-515): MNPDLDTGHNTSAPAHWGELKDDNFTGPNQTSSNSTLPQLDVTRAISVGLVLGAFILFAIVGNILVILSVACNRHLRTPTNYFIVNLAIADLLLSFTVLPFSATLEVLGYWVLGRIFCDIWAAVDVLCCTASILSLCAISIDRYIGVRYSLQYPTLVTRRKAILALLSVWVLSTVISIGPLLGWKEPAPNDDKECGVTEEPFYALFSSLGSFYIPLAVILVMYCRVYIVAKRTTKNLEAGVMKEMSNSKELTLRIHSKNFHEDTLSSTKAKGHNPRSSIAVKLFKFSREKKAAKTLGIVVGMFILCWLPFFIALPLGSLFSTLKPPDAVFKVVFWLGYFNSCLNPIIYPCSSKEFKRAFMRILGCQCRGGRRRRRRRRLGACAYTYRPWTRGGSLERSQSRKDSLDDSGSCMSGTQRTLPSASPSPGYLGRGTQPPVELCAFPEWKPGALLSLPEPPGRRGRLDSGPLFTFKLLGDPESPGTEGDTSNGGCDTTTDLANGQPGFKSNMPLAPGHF

[3] = system: phenylephrine vasopressor effects; experiment: Inhibition of phenylephrine vasopressor effects in anesthetized rabbits; type: in vivo; conditions: rabbit, n=5
Method: Animal and Homodynamic Measurements:
The experiments were performed with male rabbits weighing 3 kg, from the CECAL (Centro de Criação de Animais de Laboratório) at Fundação Oswaldo Cruz. The animals were anesthetized with sodium pentobarbital (40 mg/kg) in the ear marginal vein, and anesthesia maintenance was obtained with supplemental intravenous (i.v.) doses of 5 mg/kg as necessary. The […] were tracheomized, inserted with a polyethylene canule, and immobilized with pancuronium bromide (1 mg/kg, i.v.), with supplemental doses of 0.2 mg/kg for each hour of experiment and artificially ventilated with a mechanical fan (Rodent ventilator 7025, Ugo Basile) with a volume of 10 ml/kg and frequency from 40 to 50 incursions/min. The right femoral vein was catheterized for drug administration.
The arterial pressure was monitored through abdominal aorta catheter via the right femoral artery and connected to a quartz transductor Hewlett Packard (1290 A), which was connected to an arterial pressure processor and recorder Hewlett Packard (system 7754 with amplifier 8805 B).
The systolic (SAP) and diastolic (DAP) arterial pressures were obtained directly from the records and the average arterial pressure (AAP) was calculated by DAP's Sum with a third of the differential pressure [[…]]. The cardiac frequency was determined by counting the pressure waves, visualized with the speed increase of the recorder paper.
The cardiac debit (DC) was monitored using an electromagnetic probe, connected to a Skalar flowmeter model MDL 1401. After left thoraxatomy, between the second and third ribs, was made an incision in the pericardium and the heart was exposed to enable the visualization and dissection of the ascending aorta for installation of the electromagnetic probe. The systemic vascular resistance (SVR) was calculated as a quotient of the average arterial pressure by the cardiac debit, multiplied by a conversion factor 80 (SVR=AAP/DC×80) and expressed in dyn/seg/cm-5.
At the conclusion of the anesthetic-surgical procedures, a 15-minute period was allowed for stabilization of the homodynamic parameters. Before any pharmacological manipulation the average arterial pressure, cardiac frequency and cardiac debit measurements were obtained. These values were considered basal homodynamic values.
Dose-Response Curve of the Phenylephrine Vasopressor Effect:
After surgical procedures and stabilization of the homodynamic parameters, a dose-response curve of the phenylephrine pressure effects was performed ([…], i.v.), that were named control curves. […]
The results were expressed as average±standard deviation (E.P.M.) The administration effects of LASSBio 772 with regard to the basal values were analyzed through variance analysis (ANOVA) for repeated measurements. […]

[4] = system: alpha 1A and alpha 1B adrenoceptors (rabbit aorta, α1A > α1B); conditions: literature (Yamagishi et al.); cited from earlier work
alpha 1A subtype = biological target: T4, alpha 1A subtype (Rattus norvegicus, UniProt P43140); design: from tissue; host or cells: rat salivary gland homogenate/membranes; conditions: 0.06 nM [3H]prazosin (Michel et al.), read-out: IC50 of reference; cited from earlier work
T4 sequence (P43140 1-466): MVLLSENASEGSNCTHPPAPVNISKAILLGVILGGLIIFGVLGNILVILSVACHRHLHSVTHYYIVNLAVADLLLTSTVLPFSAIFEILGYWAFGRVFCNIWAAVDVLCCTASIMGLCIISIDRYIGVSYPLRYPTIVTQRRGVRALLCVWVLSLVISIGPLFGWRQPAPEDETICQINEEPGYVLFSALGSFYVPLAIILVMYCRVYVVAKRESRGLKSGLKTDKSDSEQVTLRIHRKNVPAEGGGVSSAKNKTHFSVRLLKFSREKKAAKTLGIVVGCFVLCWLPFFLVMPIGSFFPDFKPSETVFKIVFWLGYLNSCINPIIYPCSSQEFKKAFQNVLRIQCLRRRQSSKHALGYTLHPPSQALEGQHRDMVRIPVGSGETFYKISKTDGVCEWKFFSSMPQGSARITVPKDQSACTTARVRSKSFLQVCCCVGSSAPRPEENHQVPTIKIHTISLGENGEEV

In the case of `C[C@H](Cc1cc2c(c(C(N)=O)c1)N(CCCO)CC2)NCCOc1ccccc1OCC(F)(F)F` [KMD-3213], the Kb [1] is listed as 0.35 nM and the pKB [1] is listed as 9.45.
Work on `COc1ccccc1N1CCN(CCc2ccccc2)CC1` [LASSBio 772B, 4-Phenethyl-1-(2-methoxy-phenyl)-piperazine] yielded a Kb [2] of 0.02 nM, an IC50 (α1A) of 23.9 nM and an IC50 (alpha 1B subtype) of 130 nM. The “AAP increase induced by phenylephrine in the presence of compound” value ([3]; phenylephrine 100 μg/kg i.v.) was 9±4%, the “SVR increase induced by phenylephrine in the presence of compound” value ([3]; phenylephrine 100 μg/kg i.v.) was 15±5% and the “decrease of DC induced by phenylephrine in the presence of compound” value ([3]; phenylephrine i.v.) was 7±2%.
For `COc1cc2nc(N3CCN(C(=O)c4ccco4)CC3)nc(N)c2cc1OC` [Prazosin, prazosin], the Kb [4] is given as 1.02 nM, the pKB [4] is given as 9.05 and the Kb [1] is given as 1.45 nM. The pKB [1] was 8.84.
In the case of `COc1cccc(OC)c1OCCNCC1COc2ccccc2O1` (stereo not drawn) [WB 4101], the IC50 (alpha 1A subtype) is given as 0.6 nM.
For `CCOc1ccccc1OCCN[C@H](C)Cc1ccc(OC)c(S(N)(=O)=O)c1` [tamsulosin], the Kb [1] is given as 0.2 nM and the pKB [1] is given as 9.68.
